Results on nine molecules are retold here after ChEMBL document CHEMBL1201862, “PubChem BioAssay data set” (2004).

SMILES strings stand for the structures.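 Exposure lasted 48 hours, with cells grown in 96-well plates and compounds tested at five concentrations. GI50 = concentration required for 50% inhibition of growth.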 Active and inactive are the calls of the source. Cut-off read from the data, not from the text of the source: active = GI50 up to about 1.1 µM and inactive = higher. A value given as a limit tells only on which side of the number the result lay.

What all share (experiment): DTP human tumour cell line panel, 48 h
The test system of experiment [1] is LOX IMVI.
The test system of experiment [2] is HL-60.
For experiment [3], the system named is HT-29.
The test system of experiment [4] is A498.
Experiment [5] relates to SF-295.
Experiment [6] has as its system UACC-62.
Experiment [7] concerns UO-31.
Experiment [8] deals with CCRF-CEM.
In experiment [9] the test system is SNB-19.
Experiment [10] deals with SK-MEL-2.
The test system of experiment [11] is K562.
For experiment [12], the system named is OVCAR-5.
Experiment [13] has as its system OVCAR-4.
In experiment [14] the test system is SW-620.
The subject of experiment [15] is SK-MEL-5.
Experiment [16] has as its system A549.
Experiment [17] concerns MOLT-4.
Experiment [18] relates to OVCAR-8.
Experiment [19] concerns IGROV-1.
The test system of experiment [20] is U-251.

As to `Nc1nc(Cl)nc2c1ncn2C1CC(O)C(CO)O1` (stereo not given), the GI50 is 3.62 µM (inactive) in experiment [1]; 0.0601 µM (active) in experiment [2]; 19.3 µM (inactive) in experiment [3]; 2.95 µM (inactive) in experiment [4]; 67.9 µM (inactive) in [5]; 0.463 µM (active) in experiment [6]. Besides, the GI50 in experiment [7] was 0.701 µM (active); in experiment [8], 0.0713 µM (active); in [9], 1.47 µM (inactive); in experiment [10] it was > 100 µM (inactive); in experiment [11], 13.4 µM (inactive); in experiment [12], 1.78 µM (inactive). The GI50 in [13] was > 100 µM (inactive); in experiment [14], 23 µM (inactive); in experiment [15], 5.12 µM (inactive); in [16], 4.26 µM (inactive); in experiment [17], 0.15 µM (active); in [18], 0.097 µM (active). Besides, the GI50 in [19] is 81.8 µM (inactive); in [20], 10.4 µM (inactive).
As to `COC(=O)C(Cc1ccc2c(c1)OCO2)(NC(=O)c1ccccc1)P(=O)(OC)OC` (stereo not given), the GI50 in [1], in [2], in experiment [3], in experiment [4], in experiment [5] and in experiment [6] was > 100 µM (inactive) in each case. Moreover, the GI50 in experiment [7] is > 100 µM (inactive); in experiment [8], > 100 µM (inactive); in experiment [9], > 100 µM (inactive); in experiment [10], 63.5 µM (inactive); in experiment [11], > 100 µM (inactive); in experiment [12], > 100 µM (inactive). In addition, the GI50 in experiment [13], in [14], in experiment [15], in experiment [16], in experiment [17] and in [18] was > 100 µM (inactive) throughout. Further, the GI50 in experiment [19] and in experiment [20] was > 100 µM (inactive) throughout.
In the case of `COc1ccc2nc(-n3c(/C=C/c4ccccc4O)nc4ccccc4c3=O)sc2c1`, the GI50 in experiment [1] is 69.5 µM (inactive); in experiment [2], 43.4 µM (inactive); in experiment [3], 50.2 µM (inactive); in [4] it was 29.9 µM (inactive); in [5], 80.5 µM (inactive); in experiment [6], 61.5 µM (inactive). Besides, the GI50 in experiment [7] is 64.6 µM (inactive); in [8], 16.1 µM (inactive); in experiment [9], 35.5 µM (inactive); in experiment [10] it was 88.3 µM (inactive); in experiment [11] it was 20.4 µM (inactive); in [12], > 100 µM (inactive). The GI50 was > 100 µM (inactive) in experiment [13]; > 100 µM (inactive) in experiment [14]; 19.7 µM (inactive) in experiment [15]; 39.4 µM (inactive) in [16]; 32.9 µM (inactive) in experiment [17]; > 100 µM (inactive) in experiment [18]. For the same molecule, the GI50 in experiment [19] is 39.6 µM (inactive); in experiment [20], > 100 µM (inactive).
Turning to `C=C1C(=O)O[C@@H]2[C@H](O)[C@@H](C)[C@@H]3C=CC(=O)[C@@]3(C)[C@@H](OC(=O)/C(C)=C/C)[C@H]12`, the GI50 in experiment [1] is 0.869 µM (active); in experiment [2] it was 0.355 µM (active); in experiment [3], 0.745 µM (active); in experiment [4], 1.32 µM (inactive); in [5] it was 3.75 µM (inactive); in [6], 0.342 µM (active). For the same molecule, the GI50 in experiment [7] is 5.31 µM (inactive); in [8], 0.254 µM (active); in [9], 2.77 µM (inactive); in experiment [10] it was 0.557 µM (active); in experiment [11] it was 0.483 µM (active); in experiment [12], 3.81 µM (inactive). Further, the GI50 was 1.35 µM (inactive) in [13]; 0.483 µM (active) in experiment [14]; 1.18 µM (inactive) in [15]; 1.98 µM (inactive) in experiment [16]; 0.344 µM (active) in experiment [17]; 0.723 µM (active) in [18]. Also, the concentration for 50% growth inhibition (GI50) in experiment [19] is 0.459 µM (active); in [20], 0.733 µM (active).
In the case of `CC(C)(C)c1ccc2c(c1)OP1(Oc3c(Cl)cc(Cl)c4cccnc34)(O2)Oc2ccc(C(C)(C)C)cc2O1`, the GI50 was 5.55 µM (inactive) in experiment [1]; 2.65 µM (inactive) in experiment [2]; 5.2 µM (inactive) in [3]; 14.1 µM (inactive) in [4]; 5.42 µM (inactive) in experiment [5]; 5.37 µM (inactive) in experiment [6]. The GI50 in experiment [7] was 5.08 µM (inactive); in [8], 3.12 µM (inactive); in experiment [9] it was 7.53 µM (inactive); in [10], 10.2 µM (inactive); in experiment [11] it was 3.94 µM (inactive); in experiment [12], 13.7 µM (inactive). Besides, the GI50 in experiment [13] was 10.3 µM (inactive); in [14], 6.43 µM (inactive); in experiment [15], 8.51 µM (inactive); in [16] it was 6 µM (inactive); in experiment [17], 2.81 µM (inactive); in experiment [18], 5.31 µM (inactive). Moreover, the GI50 is 8.55 µM (inactive) in experiment [19] and 4.63 µM (inactive) in experiment [20].
For the molecule `COc1cc2c(cc1O)N=C[C@@H]1CC[C@@H](O)N1C2=O.COc1cc2c(cc1O)N=C[C@@H]1CC[C@H](O)N1C2=O`, the GI50 in experiment [1] was 0.473 µM (active); in experiment [2] it was 0.897 µM (active); in [3] it was 2.17 µM (inactive); in experiment [4], 0.43 µM (active); in [5], 0.984 µM (active); in [6], 0.627 µM (active). Further, the GI50 is 0.579 µM (active) in [7]; 0.369 µM (active) in experiment [8]; 1.4 µM (inactive) in experiment [9]; 0.433 µM (active) in experiment [10]; 0.849 µM (active) in experiment [11]; 2.99 µM (inactive) in experiment [12]. In addition, the GI50 in experiment [13] was 3.55 µM (inactive); in experiment [14], 0.652 µM (active); in experiment [15], 0.583 µM (active); in [16], 5.6 µM (inactive); in experiment [17], 0.615 µM (active); in [18], 1.05 µM (active). Besides, the results for the GI50 in experiment [19] and in [20] were 1.83 µM (inactive) and 0.635 µM (active), respectively.
For `Cc1ccc(S(=O)(=O)OCCN(CCOS(=O)(=O)c2ccc(C)cc2)c2ccc(C=O)cc2)cc1`, the GI50 was 38.7 µM (inactive) in experiment [1]; 42.3 µM (inactive) in experiment [2]; 32.1 µM (inactive) in [3]; 24.9 µM (inactive) in [4]; 44.3 µM (inactive) in experiment [5]; 20 µM (inactive) in experiment [6]. The GI50 in experiment [7] is 19.5 µM (inactive); in [8], 34.8 µM (inactive); in experiment [9], 60.8 µM (inactive); in experiment [10], 16.5 µM (inactive); in [11], 38.4 µM (inactive); in experiment [12], 25.3 µM (inactive). Further, the GI50 in [13] was 21.2 µM (inactive); in [14] it was 29.6 µM (inactive); in experiment [15], 32.9 µM (inactive); in experiment [16], 32.5 µM (inactive); in experiment [17], 32.4 µM (inactive); in experiment [18], 41.8 µM (inactive). For the same molecule, the GI50 is 36.1 µM (inactive) in experiment [19] and 24.3 µM (inactive) in experiment [20].
In the case of `CC(=O)C(CN1CCCCC1)C(c1ccccc1)c1c(O)c2ccccc2oc1=O` (stereo not given), the GI50 in experiment [1] is > 100 µM (inactive); in experiment [2], 59.4 µM (inactive); in experiment [3], > 100 µM (inactive); in experiment [4], > 100 µM (inactive); in experiment [5], > 100 µM (inactive); in [6], > 100 µM (inactive). In addition, the GI50 in experiment [7], in experiment [8], in experiment [9], in experiment [10], in [11] and in experiment [12] was > 100 µM (inactive) each time. The GI50 in experiment [13], in experiment [14], in experiment [15], in [16], in [17] and in experiment [18] was > 100 µM (inactive) throughout. Besides, the GI50 in experiment [19] and in experiment [20] was > 100 µM (inactive) in each case.
For `CCCCCCCCCCCCSC(=S)c1c(C)[nH]n(CCCCCCCCCCCC)c1=O`, the GI50 in [1] was > 100 µM (inactive); in experiment [2], 66.7 µM (inactive); in experiment [3] it was 74.1 µM (inactive); in experiment [4], > 100 µM (inactive); in experiment [5], > 100 µM (inactive); in experiment [6], > 100 µM (inactive). The GI50 is 88.1 µM (inactive) in [7]; 48.4 µM (inactive) in [8]; > 100 µM (inactive) in experiment [9]; 78.2 µM (inactive) in experiment [10]; > 100 µM (inactive) in experiment [11]; > 100 µM (inactive) in experiment [12]. Also, the GI50 in experiment [13] was > 100 µM (inactive); in [14], 77.6 µM (inactive); in experiment [15], > 100 µM (inactive); in experiment [16], 40.5 µM (inactive); in experiment [17], > 100 µM (inactive); in experiment [18], 91.2 µM (inactive). Besides, the GI50 in experiment [19] and in experiment [20] was > 100 µM (inactive) throughout.
